Experimental data taken from patent US20230416248A1, “COMPOUNDS AND USES THEREOF” (Foghorn Therapeutics Inc., priority 2020, published 2023).

Tests used:
BRM = target: T1, BRM (Homo sapiens, UniProt P51531); experiment: ATPase catalytic activity of BRM, ADP-Glo in vitro biochemical assay; settings: for IC50: ADP-Glo ATPase assay, 30 nM BRM, 400 μM ATP; for Ratio* (BRG1 IC50 (μM) divided by BRM IC50 (μM)): selectivity ratio BRG1 IC50 / BRM IC50
T1 construct: made in house; host or cells: High Five insect cells
Procedure, shortened: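 Recombinant BRM (30 nM) hydrolysed 400 μM ATP with 20 nM salmon sperm DNA in pH 8 Tris buffer containing 20 mM MgCl2, 50 mM NaCl, 0.1% Tween-20 and 1 mM DTT, 1 h at room temperature. ADP formed was quantified by ADP-Glo luminescence.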

BRG-1 = target: T2, BRG-1 (Homo sapiens, UniProt P51532); experiment: ATPase catalytic activity of BRG-1, ADP-Glo in vitro biochemical assay; settings: ADP-Glo ATPase assay, 30 nM BRG-1, 400 μM ATP; read-out: BRG1 IC50
T2 construct: made in house; host or cells: High Five insect cells
Procedure, shortened: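 BRG-1 ATPase activity was measured by ADP-Glo. Unconsumed ATP was depleted for 40 min at room temperature, then ADP was converted to ATP for 60 min and read as luminescence.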

T2 sequence (P51532 whole entry): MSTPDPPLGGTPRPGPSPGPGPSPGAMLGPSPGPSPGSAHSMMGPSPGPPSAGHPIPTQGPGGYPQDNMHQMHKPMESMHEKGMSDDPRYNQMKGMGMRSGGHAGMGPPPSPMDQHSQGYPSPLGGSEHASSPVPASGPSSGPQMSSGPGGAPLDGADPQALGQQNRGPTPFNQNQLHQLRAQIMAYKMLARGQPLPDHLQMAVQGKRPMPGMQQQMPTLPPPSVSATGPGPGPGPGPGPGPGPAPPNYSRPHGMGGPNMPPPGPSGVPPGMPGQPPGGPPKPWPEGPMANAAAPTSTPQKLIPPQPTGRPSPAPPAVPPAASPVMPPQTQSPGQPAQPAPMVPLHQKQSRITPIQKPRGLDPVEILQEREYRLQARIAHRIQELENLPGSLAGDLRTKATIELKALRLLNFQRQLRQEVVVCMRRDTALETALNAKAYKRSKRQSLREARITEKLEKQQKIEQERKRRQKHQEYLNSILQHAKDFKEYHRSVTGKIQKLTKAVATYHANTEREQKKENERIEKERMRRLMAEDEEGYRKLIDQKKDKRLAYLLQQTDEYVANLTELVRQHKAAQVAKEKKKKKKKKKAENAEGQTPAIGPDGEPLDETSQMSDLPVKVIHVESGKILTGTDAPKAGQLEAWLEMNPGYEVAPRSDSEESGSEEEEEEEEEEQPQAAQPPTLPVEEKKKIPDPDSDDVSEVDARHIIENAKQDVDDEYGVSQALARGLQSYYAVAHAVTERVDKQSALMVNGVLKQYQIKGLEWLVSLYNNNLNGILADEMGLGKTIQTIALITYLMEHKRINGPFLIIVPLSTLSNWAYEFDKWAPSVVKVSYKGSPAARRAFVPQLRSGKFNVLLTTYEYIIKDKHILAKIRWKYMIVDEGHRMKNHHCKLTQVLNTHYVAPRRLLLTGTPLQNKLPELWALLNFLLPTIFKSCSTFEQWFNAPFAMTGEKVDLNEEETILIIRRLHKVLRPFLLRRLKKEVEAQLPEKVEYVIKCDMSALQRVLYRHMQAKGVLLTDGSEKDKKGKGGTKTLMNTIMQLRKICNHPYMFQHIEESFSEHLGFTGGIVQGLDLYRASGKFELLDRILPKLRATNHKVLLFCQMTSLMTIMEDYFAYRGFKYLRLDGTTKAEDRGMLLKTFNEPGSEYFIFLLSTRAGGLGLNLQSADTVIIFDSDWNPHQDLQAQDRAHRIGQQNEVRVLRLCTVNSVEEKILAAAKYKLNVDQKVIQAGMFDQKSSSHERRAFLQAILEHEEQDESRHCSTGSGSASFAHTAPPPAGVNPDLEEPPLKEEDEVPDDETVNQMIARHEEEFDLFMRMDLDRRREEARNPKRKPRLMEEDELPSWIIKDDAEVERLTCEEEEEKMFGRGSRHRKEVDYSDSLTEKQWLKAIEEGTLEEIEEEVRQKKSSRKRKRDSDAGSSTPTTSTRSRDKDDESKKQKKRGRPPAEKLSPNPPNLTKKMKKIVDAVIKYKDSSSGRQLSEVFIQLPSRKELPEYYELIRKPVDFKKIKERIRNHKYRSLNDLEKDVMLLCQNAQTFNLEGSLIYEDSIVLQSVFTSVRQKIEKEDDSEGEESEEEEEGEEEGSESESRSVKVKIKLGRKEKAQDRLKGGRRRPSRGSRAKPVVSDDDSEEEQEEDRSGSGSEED
T1 sequence (P51531 whole entry): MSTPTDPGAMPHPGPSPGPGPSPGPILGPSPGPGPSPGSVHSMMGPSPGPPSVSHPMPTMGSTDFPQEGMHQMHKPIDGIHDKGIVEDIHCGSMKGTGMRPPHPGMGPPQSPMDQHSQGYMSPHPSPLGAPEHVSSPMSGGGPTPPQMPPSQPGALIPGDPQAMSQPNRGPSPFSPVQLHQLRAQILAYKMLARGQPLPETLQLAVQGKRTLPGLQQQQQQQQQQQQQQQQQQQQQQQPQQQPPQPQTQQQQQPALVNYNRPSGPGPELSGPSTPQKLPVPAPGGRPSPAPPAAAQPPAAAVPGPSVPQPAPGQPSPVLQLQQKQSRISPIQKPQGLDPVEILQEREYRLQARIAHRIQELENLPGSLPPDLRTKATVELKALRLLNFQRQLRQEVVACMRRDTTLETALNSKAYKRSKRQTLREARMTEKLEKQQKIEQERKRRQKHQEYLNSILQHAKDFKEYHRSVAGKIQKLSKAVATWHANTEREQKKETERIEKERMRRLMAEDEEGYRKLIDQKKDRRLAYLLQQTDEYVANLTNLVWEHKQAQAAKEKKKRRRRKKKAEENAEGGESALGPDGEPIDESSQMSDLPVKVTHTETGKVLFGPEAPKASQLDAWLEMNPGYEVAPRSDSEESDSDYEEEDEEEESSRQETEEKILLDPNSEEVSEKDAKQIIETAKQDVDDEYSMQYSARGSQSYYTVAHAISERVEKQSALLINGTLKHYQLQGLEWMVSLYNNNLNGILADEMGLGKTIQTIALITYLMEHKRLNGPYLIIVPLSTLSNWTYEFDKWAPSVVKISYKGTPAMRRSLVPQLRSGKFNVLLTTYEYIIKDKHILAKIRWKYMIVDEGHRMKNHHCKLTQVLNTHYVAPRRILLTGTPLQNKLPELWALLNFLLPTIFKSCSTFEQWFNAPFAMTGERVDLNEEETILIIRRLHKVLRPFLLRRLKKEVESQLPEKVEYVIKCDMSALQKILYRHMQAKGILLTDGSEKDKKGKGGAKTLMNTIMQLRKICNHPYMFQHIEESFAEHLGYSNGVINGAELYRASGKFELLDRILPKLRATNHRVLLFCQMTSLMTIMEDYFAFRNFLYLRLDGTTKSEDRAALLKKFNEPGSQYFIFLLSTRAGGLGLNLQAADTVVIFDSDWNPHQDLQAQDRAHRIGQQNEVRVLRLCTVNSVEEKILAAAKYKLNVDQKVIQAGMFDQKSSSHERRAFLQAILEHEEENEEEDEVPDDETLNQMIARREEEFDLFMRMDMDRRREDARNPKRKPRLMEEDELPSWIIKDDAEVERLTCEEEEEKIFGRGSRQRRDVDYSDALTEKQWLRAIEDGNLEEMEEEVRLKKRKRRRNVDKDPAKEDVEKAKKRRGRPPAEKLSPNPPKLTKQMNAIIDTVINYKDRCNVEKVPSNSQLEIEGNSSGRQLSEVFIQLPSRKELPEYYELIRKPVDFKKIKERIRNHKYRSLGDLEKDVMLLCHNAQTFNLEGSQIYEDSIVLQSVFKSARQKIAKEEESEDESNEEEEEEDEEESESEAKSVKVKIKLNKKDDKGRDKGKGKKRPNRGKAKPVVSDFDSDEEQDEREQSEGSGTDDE

| IC50 (BRM) | Ratio* (BRG1 IC50 (μM) divided by BRM IC50 (μM)) (BRM) | IC50 (BRG-1) | SMILES |
| --- | --- | --- | --- |
| 0.18 µM | 7.72 | 1.39 µM | C[C@H]1COCCN1c1cccc(-c2ccc3cnc(CNC(=O)c4ccc5c(c4)S(=O)(=O)CCOC5)cc3n2)n1 [Compound 178] |
| 0.0333 µM | 11.49 | 0.383 µM | C[C@H]1CN(c2cccc(-c3ccc4cnc(CNC(=O)c5ccc(Cl)c(S(C)(=O)=O)c5)cc4n3)n2)C[C@H](C)O1 [Compound 179] |
| 0.0176 µM | 15.48 | 0.272 µM | C[C@@H]1CN(c2nccc(-c3ccc4cnc(CNC(=O)c5ccc(Cl)c(S(C)(=O)=O)c5)cc4n3)n2)C[C@H](C)O1 [Compound 180] |
| 0.0405 µM | 9.06 | 0.367 µM | C[C@@H]1COCCN1c1cccc(-c2ccc3cnc(CNC(=O)c4ccc5c(c4)S(=O)(=O)CCOC5)cc3n2)n1 [Compound 181] |
| 0.0445 µM | 9.47 | 0.422 µM | C[C@@H]1CN(c2cncc(-c3ccc4cnc(CNC(=O)c5ccc(Cl)c(S(C)(=O)=O)c5)cc4n3)n2)C[C@H](C)O1 [Compound 182] |
| 0.0089 µM | 11.33 | 0.101 µM | O=C(NCc1cc2nc(-c3cccc(C4=CCOCC4)n3)ccc2cn1)c1ccc2c(c1)S(=O)(=O)CCOC2 [Compound 183] |
| 0.0805 µM | 9.55 | 0.769 µM | O=C(NCc1cc2nc(-c3cccc(N4CCC(F)(F)CC4)n3)ccc2cn1)c1ccc2c(c1)S(=O)(=O)CCOC2 [Compound 184] |
| 0.357 µM | 3.75 | 1.34 µM | CC(=O)N1CCOc2c(-c3ccc4cnc(CNC(=O)c5ccc6c(c5)S(=O)(=O)CCOC6)cc4n3)cccc21 [Compound 185] |
| 0.0221 µM | 11.50 | 0.254 µM | O=C(NCc1cc2nc(-c3cccc(N4CCC(F)CC4)n3)ccc2cn1)c1ccc2c(c1)S(=O)(=O)CCOC2 [Compound 186] |
| 0.109 µM | 24.40 | 2.67 µM | O=C(NCc1cc2nc(-c3cncc(C4CC4)n3)ccc2cn1)c1cc(Cl)c2c(c1)S(=O)(=O)CCOC2 [Compound 187] |
| 0.287 µM | 17.42 | 5 µM | O=C1CS(=O)(=O)c2cc(C(=O)NCc3cc4nc(-c5cccc(C6CC6)c5)ccc4cn3)ccc2CN1 [Compound 188] |
| 0.0459 µM | 8.57 | 0.394 µM | CN1CCc2ccc(-c3ccc4cnc(CNC(=O)c5ccc6c(c5)S(=O)(=O)CCOC6)cc4n3)nc21 [Compound 190] |
| 0.0601 µM | 19.73 | 1.18 µM | O=C(NCc1cc2nc(-c3cccc(C4CC4)n3)cnc2cn1)c1ccc2c(c1)S(=O)(=O)CCOC2 [Compound 191] |
| 0.0051 µM | 6.45 | 0.0327 µM | COCc1ccc(C(=O)NCc2cc3nc(-c4cccc(N5C[C@@H](C)O[C@@H](C)C5)n4)ccc3cn2)cc1S(C)(=O)=O [Compound 192] |
| 0.219 µM | 12.69 | 2.78 µM | O=C(NCc1cc2nc(-c3cn(C4COC4)nc3C3CC3)ccc2cn1)c1ccc2c(c1)S(=O)(=O)CCOC2 [Compound 194] |
| 0.0037 µM | 8.49 | 0.0313 µM | Cc1ccc(C(=O)NCc2cc3nc(-c4cccc(N5C[C@@H](C)O[C@@H](C)C5)n4)ccc3cn2)cc1S(C)(=O)=O [Compound 195] |

| IC50 (BRM) | Ratio* (BRG1 IC50 (μM) divided by BRM IC50 (μM)) (BRM) | IC50 (BRG-1) | SMILES |
| --- | --- | --- | --- |
| 0.222 µM | 4.34 | 0.967 µM | O=C(NCc1cc2nc(-c3cccc4c3CCN4C3COC3)ccc2cn1)c1ccc2c(c1)S(=O)(=O)CCOC2 [Compound 198] |
| 0.0081 µM | 7.31 | 0.0591 µM | CO[C@@H]1CCN(c2cccc(-c3ccc4cnc(CNC(=O)c5ccc6c(c5)S(=O)(=O)CCOC6)cc4n3)n2)C1 [Compound 200] |
| 0.0194 µM | 9.11 | 0.177 µM | CO[C@H]1CCN(c2cccc(-c3ccc4cnc(CNC(=O)c5ccc6c(c5)S(=O)(=O)CCOC6)cc4n3)n2)C1 [Compound 201] |
| 0.0179 µM | 7.59 | 0.136 µM | O=C(NCc1cc2nc(-c3cccc(N4CCC(F)(F)C4)n3)ccc2cn1)c1ccc2c(c1)S(=O)(=O)CCOC2 [Compound 202] |
| 0.154 µM | 10.23 | 1.58 µM | CC(c1cccc(-c2ccc3cnc(CNC(=O)c4ccc5c(c4)S(=O)(=O)CCOC5)cc3n2)n1)C(F)F (stereo not drawn) [Compound 203] |
| 0.0565 µM | 12.01 | 0.679 µM | O=C(NCc1cc2nc(-c3cccc(C4CC4)n3)ccc2cn1)c1cnc2c(c1)S(=O)(=O)CCOC2 [Compound 204] |
| 0.0903 µM | 16.45 | 1.48 µM | O=C(NCc1cc2nc(-c3cccc(CC(F)F)n3)ccc2cn1)c1ccc2c(c1)S(=O)(=O)CCOC2 [Compound 205] |
| 0.008 µM | 13.71 | 0.11 µM | C[C@@H]1CN(c2cccc(-c3ccc4cnc(CNC(=O)c5ccc(C(F)F)c(S(C)(=O)=O)c5)cc4n3)n2)C[C@H](C)O1 [Compound 206] |
| 0.407 µM | 12.29 | 5 µM | COCCc1ccc(C(=O)NCc2cc3nc(-c4cncc(C5CC5)n4)ccc3cn2)cc1S(C)(=O)=O [Compound 207] |
| 0.0427 µM | 8.84 | 0.377 µM | O=C(NCc1cc2nc(-c3cccc(C4(C(F)F)CC4)n3)ccc2cn1)c1ccc2c(c1)S(=O)(=O)CCOC2 [Compound 208] |
| 0.498 µM | 7.27 | 3.62 µM | O=C(NCc1cc2nc(-c3cncc(C(F)(F)F)n3)ccc2cn1)c1ccc2c(c1)S(=O)(=O)CCOC2 [Compound 209] |
| 0.0176 µM | 9.92 | 0.174 µM | CC1(c2cccc(-c3ccc4cnc(CNC(=O)c5ccc6c(c5)S(=O)(=O)CCOC6)cc4n3)n2)CC1 [Compound 210] |
| 0.007 µM | 3.05 | 0.0213 µM | C[C@@H]1CN(c2cncc(-c3ccc4cnc(CNC(=O)c5ccc6c(c5)S(=O)(=O)CCOC6)cc4c3)n2)C[C@H](C)O1 [Compound 211] |
| 0.0143 µM | 8.51 | 0.122 µM | Cc1cc(-c2ccc3cnc(CNC(=O)c4ccc5c(c4)S(=O)(=O)CCOC5)cc3n2)nc(N2C[C@@H](C)O[C@@H](C)C2)c1 [Compound 212] |
| 0.0095 µM | 13.94 | 0.132 µM | C[C@@H]1CN(c2cccc(-c3ccc4cnc(CNC(=O)c5ccc(Cl)c(S(C)(=O)=O)c5)cc4n3)n2)C[C@H](C)O1 [Compound 213] |
| 0.331 µM | 10.01 | 3.31 µM | C[C@@]1(c2cccc(-c3ccc4cnc(CNC(=O)c5ccc6c(c5)S(=O)(=O)CCOC6)cc4n3)n2)CC1(F)F [Compound 214] |
